Values of other authors as cited in patent US10114931B2, “Pharmaceutical platform technology for the development of natural products” (Sinoveda Canada Inc., priority 2007, dated 2018).
Where two headings read alike, the source gives them in different places. Blank lines part the entries; values can stand above or below the compound they belong to.

How the values were obtained:
[1] = in vivo
[2] = system: osteoblast formation; conditions: compared with genistein
[3] = in vivo; remark: listed apart in the source
[4] = system: bone loss in early postmenopausal women; conditions: 54 mg/day, given orally for a year
[5] = Yan et al., 2008

Detection in the blood stream [1]: not detected
Structure (SMILES): C[C@@H]1O[C@@H](OC[C@H]2O[C@@H](Oc3c(-c4ccc(O)c(O)c4)oc4cc(O)cc(O)c4c3=O)[C@H](O)[C@@H](O)[C@@H]2O)[C@H](O)[C@H](O)[C@H]1O [Rutin]

Structure (SMILES): O=c1c(-c2ccc(O)cc2)coc2cc(O)ccc12 [daidzein]
Potency in osteoblast formation in vitro [2]: more potent
Bioavailability [3]: less than 5%

Structure (SMILES): O=c1c(-c2ccc(O)cc2)coc2cc(O)cc(O)c12 [genistein]
Efficacy compared with hormone replacement therapy [4]: as effective as hormone replacement therapy

Bioavailability [5]: less than 3%
Structure (SMILES): CCC/C=C1\OC(=O)C2=C1CCC=C2 [z-ligustilide]
